Results reported in patent US7297704B2, “Cycloalkyfused indole, benzothiophene, benzofuran and idene derivatives” (Wyeth, priority 2005, dated 2007).
Where a name gives a salt, the structure may show the parent alone.

Experiments:
[1] = target: T1, Human 5-HT1A Receptor (Homo sapiens, UniProt P08908); test: 8-OH-DPAT binding, human 5-HT1A receptor cell line; details: stably transfected CHO cells, 8-OH-DPAT ligand 1.5 nM; read-out: h5-HT1A Affinity, Ki
T1 construct: expressed in transfected cells; host or cells: CHO cells
T1 sequence (P08908 1-422): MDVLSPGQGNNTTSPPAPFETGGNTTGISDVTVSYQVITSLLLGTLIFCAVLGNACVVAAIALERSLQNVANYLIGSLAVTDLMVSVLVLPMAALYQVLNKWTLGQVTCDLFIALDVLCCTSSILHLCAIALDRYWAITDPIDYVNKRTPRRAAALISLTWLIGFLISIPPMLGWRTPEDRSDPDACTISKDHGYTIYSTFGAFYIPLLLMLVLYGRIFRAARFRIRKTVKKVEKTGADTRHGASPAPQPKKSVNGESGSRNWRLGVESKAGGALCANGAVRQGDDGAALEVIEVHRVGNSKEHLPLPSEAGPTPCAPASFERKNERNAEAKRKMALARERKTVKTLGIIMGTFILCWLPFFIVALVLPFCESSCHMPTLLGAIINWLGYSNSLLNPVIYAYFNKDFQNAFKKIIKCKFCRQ
Description: Stably transfected CHO cells were grown in DMEM containing 10% heat inactivated FBS and non-essential amino acids. Cells were scraped off the plate, transferred to centrifuge tubes, and washed twice by centrifugation (2000 rpm for 10 min., 4° C.) in buffer (50 mM Tris, pH 7.5). The resulting pellets were aliquoted and placed at −80° C. On day of assay, the cells were thawed on ice, and resuspended in buffer. The binding assay was performed in a 96 well microtiter plate in a total volume of […]. Non-specific binding was determined in the presence of […] 5HT; final ligand concentration was 1.5 nM. Following a 30 min. incubation at room temperature, the reaction was terminated by the addition of ice cold buffer and rapid filtration through a GF/B filter presoaked for 30 min. in 0.5% PEI. Compounds were initially tested in a single point assay to determine percent inhibition at […]. Subsequently, Ki values were determined for compounds defined to be active. Percent inhibition Ki was determined by RFComp (Lundon Software), with Serotonin 8-OH-DPAT as the reference compounds.

[2] = target: T1, Human 5-HT1A Receptor; test: cAMP RIA in human 5-HT1A receptor cell line; type: cell-based; details: superscript b; reversal of agonist activity, CHO cells; read-out: c-AMP, (IC50)^b
Description: Stably transfected CHO cells were grown in DMEM containing 10% heat inactivated FBS and non-essential amino acids. The cells were plated at a density of 10^6 cells per well in a 96 well plate and incubated for 2 days in a CO2 incubator. On the second day, the media was replaced with 0.1 ml Krebs and incubated 15 minutes at 37° C. The media was then replaced with Krebs buffer containing 500 uM IBMX and incubated 5 minutes at 37° C. Wells were treated with forskolin (1 uM final conc) followed immediately by test compound (0.1 and 1 uM for initial screen) and incubated for an additional 10 min at 37° C. Reaction was terminated by removal of the media and addition of 0.5 ml ice cold assay buffer (supplied in RIA kit). Plates are stored at −20° C. prior to assessment of cAMP formation by RIA. Compounds shown to have no agonist activities were further analyzed for ability to reverse agonist activity. In separate experiments, 6 concentrations of antagonist were preincubated for 20 min prior to the addition of agonist and forskolin. Cells were harvested as described. The cAMP kit is supplied by Amersham and the RIA is performed as per kit instructions. In the initial screen, percent inhibition of forskolin stimulated cAMP was measured. In the secondary screen, IC50 of reversal of agonist activity was measured. Calculations of IC50 were performed by GraphPad Prism. Serotonin, BMY 7378, Buspirone, and 8-OH-DPAT were used as reference compounds.

[3] = target: T2, serotonin transporter (Rattus norvegicus, UniProt P31652); test: 3H-paroxetine binding to the serotonin transporter, rat frontal cortical membranes; details: values printed in parentheses, 3H-paroxetine 0.1 nM, read-out: rb-5-HH-T, (IC50)
T2 construct: frontal cortical membranes prepared from male S.D. rats; from tissue; host or cells: rat frontal cortex membranes (male Sprague-Dawley)
Description: A protocol similar to that used by Cheetham et al. (Neuropharmacol. 32:737, 1993) was used to determine the affinity of compounds for the serotonin transporter. Briefly, frontal cortical membranes prepared from male S.D. rats were incubated with ^3H-paroxetine (0.1 nM) for 60 min at 25° C. All tubes also contained either vehicle, test compound (one to eight concentrations), or a saturating concentration of fluoxetine (10 μM) to define […]. All reactions are terminated by the addition of ice cold Tris buffer followed by rapid filtration using a Tom Tech filtration device to separate bound from free ^3H-paroxetine. Bound radioactivity was quantitated using a Wallac 1205 Beta Plate® counter. Nonlinear regression analysis was used to determine IC50 values which were converted to Ki values using the method of Cheng and Prusoff (Biochem. Pharmacol. 22: 3099, 1973); […].

T2 sequence (P31652 whole entry): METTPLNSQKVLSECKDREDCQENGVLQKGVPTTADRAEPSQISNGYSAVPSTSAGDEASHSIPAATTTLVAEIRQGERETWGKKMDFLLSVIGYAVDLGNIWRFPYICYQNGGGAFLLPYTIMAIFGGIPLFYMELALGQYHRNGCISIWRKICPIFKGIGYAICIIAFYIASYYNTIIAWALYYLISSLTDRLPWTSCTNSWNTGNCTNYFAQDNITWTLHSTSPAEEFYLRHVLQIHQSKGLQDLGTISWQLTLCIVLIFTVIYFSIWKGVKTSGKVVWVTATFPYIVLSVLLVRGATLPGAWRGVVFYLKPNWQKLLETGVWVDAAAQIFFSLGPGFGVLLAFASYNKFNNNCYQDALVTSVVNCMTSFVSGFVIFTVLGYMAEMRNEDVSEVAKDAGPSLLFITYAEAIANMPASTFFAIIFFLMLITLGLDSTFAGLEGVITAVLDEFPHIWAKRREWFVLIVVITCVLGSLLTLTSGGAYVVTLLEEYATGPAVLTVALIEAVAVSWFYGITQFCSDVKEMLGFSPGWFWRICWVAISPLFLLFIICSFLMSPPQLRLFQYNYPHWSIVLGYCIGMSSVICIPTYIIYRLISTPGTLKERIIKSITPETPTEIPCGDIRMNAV

Row | Ki [1] [nM] | IC50 [2] [nM] | IC50 [3] [nM] | Structure (SMILES) | melting point
1 | – | – | – | Cc1ccc2c3c(ccc2n1)OC[C@H](CN(CC1CCc2c(c4cc(F)ccc4n2C)C1)C1CCCC1)O3.Cl.O (stereo partly drawn) (hydrate or solvate) [Example 66, N-[(6-Fluoro-9-methyl-2,3,4,9-tetrahydro-1H-carbazol-3-yl)methyl]-N-{[(2S)-8-methyl-2,3-dihydro[1,4]dioxino[2,3-f]quinolin-2-yl]methyl}cyclopentanamine monohydrochloride monohydrate] | 206 to 222 °C
2 | – | – | – | Cc1ccc2c3c(ccc2n1)OC[C@H](CNC[C@H]1CCc2c(c4cc(F)ccc4n2C)C1)O3 (as salt: hydrochloride) [Example 7] | 220 to 226 °C
3 | – | – | – | Cc1ccc2c3c(ccc2n1)OC[C@H](CNC[C@@H]1CCc2[nH]c4ccc(F)cc4c2C1)O3 (as salt: hydrochloride) [Example 5, N-{[(3R)-6-fluoro-2,3,4,9-tetrahydro-1H-carbazol-3-yl]methyl}-N-{[(2S)-8-methyl-2,3-dihydro[1,4]dioxino[2,3-f]quinolin-2-yl]methyl}amine] | 229 to 236 °C
4 | – | – | – | CCC(C)N(C[C@@H]1CCc2[nH]c3ccc(F)cc3c2C1)C[C@H]1COc2ccc3nc(C)ccc3c2O1.Cl.O (stereo partly drawn) (hydrate or solvate) [Example 58, N-{[(3R)-6-Fluoro-2,3,4,9-tetrahydro-1H-carbazol-3-yl]methyl}-N-{[(2S)-8-methyl-2,3-dihydro[1,4]dioxino[2,3-f]quinolin-2-yl]methyl}butan-2-amine monohydrochloride monohydrate] | 235 to 256 °C
5 | – | – | – | Cc1ccc2c3c(ccc2n1)OC[C@H](CN(CC1CCc2[nH]c4ccc(F)cc4c2C1)C1CCC1)O3.Cl.Cl.O.O (stereo partly drawn) (hydrate or solvate) [Example 53, N-[(6-Fluoro-2,3,4,9-tetrahydro-1H-carbazol-3-yl)methyl]-N-{[(2S)-8-methyl-2,3-dihydro[1,4]dioxino[2,3-f]quinolin-2-yl]methyl}cyclobutanamine dihydrochloride dihydrate] | 220 to 235 °C
6 | – | – | – | CCCN(CC1CCc2[nH]c3ccc(F)cc3c2C1)C[C@H]1COc2ccc3nc(C)ccc3c2O1.Cl.Cl.O.O (stereo partly drawn) (hydrate or solvate) [Example 51, N-[(6-Fluoro-2,3,4,9-tetrahydro-1H-carbazol-3-yl)methyl]-N-{[(2S)-8-methyl-2,3-dihydro[1,4]dioxino[2,3-f]quinolin-2-yl]methyl}propan-1-amine dihydrochloride dihydrate] | 187 to 201 °C
7 | – | – | – | Cc1ccc2c3c(ccc2n1)OC[C@H](CN(C[C@H]1CCc2[nH]c4ccc(F)cc4c2C1)C(C)C)O3.Cl.O (hydrate or solvate) [Example 61, N-{[(3S)-6-Fluoro-2,3,4,9-tetrahydro-1H-carbazol-3-yl]methyl}-N-{[(2S)-8-methyl-2,3-dihydro[1,4]dioxino[2,3-f]quinolin-2-yl]methyl}propan-2-amine monohydrochloride monohydrate] | 228 to 240 °C
8 | – | – | – | Cc1ccc2c3c(ccc2n1)OC[C@H](CNC1CCc2c([nH]c4ccc(F)cc24)C1)O3 (mixture of isomers) (as salt: hydrochloride) [Example 46, 6-Fluoro-N-{[(2S)-8-methyl-2,3-dihydro[1,4]dioxino[2,3-f]quinolin-2-yl]methyl}-2,3,4,9-tetrahydro-1H-carbazol-2-amine] | 226 to 228 °C (dec.)
9 | – | – | – | Cc1ccc2c3c(ccc2n1)OC[C@H](CN(C[C@@H]1CCc2[nH]c4ccc(F)cc4c2C1)C1CCCC1)O3.Cl.O (hydrate or solvate) [Example 59, N-{[(3R)-6-Fluoro-2,3,4,9-tetrahydro-1H-carbazol-3-yl]methyl}-N-{[(2S)-8-methyl-2,3-dihydro[1,4]dioxino[2,3-f]quinolin-2-yl]methyl}cyclopentanamine monohydrochloride monohydrate] | 225 to 243 °C
10 | – | – | – | Cc1ccc2c3c(ccc2n1)OC[C@H](CN(C[C@@H]1CCc2[nH]c4ccc(F)cc4c2C1)C1CCCCC1)O3.Cl.O (hydrate or solvate) [Example 60, N-{[(3R)-6-fluoro-2,3,4,9-tetrahydro-1H-carbazol-3-yl]methyl}-N-{[(2S)-8-methyl-2,3-dihydro[1,4]dioxino[2,3-f]quinolin-2-yl]methyl}cyclohexanamine monohydrochloride monohydrate] | 207 to 218 °C
11 | – | – | – | CCC(C)N(C[C@H]1CCc2[nH]c3ccc(F)cc3c2C1)C[C@H]1COc2ccc3nc(C)ccc3c2O1.Cl.O (stereo partly drawn) (hydrate or solvate) [Example 62, N-{[(3S)-6-Fluoro-2,3,4,9-tetrahydro-1H-carbazol-3-yl]methyl}-N-{[(2S)-8-methyl-2,3-dihydro[1,4]dioxino[2,3-f]quinolin-2-yl]methyl}butan-2-amine monohydrochloride monohydrate] | 246 to 257 °C
12 | 0.34 | 78.5 | 7.74 | Cc1ccc2c3c(ccc2n1)OC[C@H](CNC[C@H]1CCc2c(c4cc(F)ccc4n2C)C1)O3 [Example 7] | –
13 | – | – | – | Cc1ccc2c3c(ccc2n1)OC[C@H](CN(C)C[C@H]1CCc2c(c4cc(F)ccc4n2C)C1)O3.Cl.O (hydrate or solvate) [Example 68, {[(3S)-6-Fluoro-9-methyl-2,3,4,9-tetrahydro-1H-carbazol-3-yl]methyl}methyl{[(2S)-8-methyl-2,3-dihydro[1,4]dioxino[2,3-f]quinolin-2-yl]methyl}amine monohydrochloride monohydrate] | 248 to 258 °C
14 | 2.03 | 144 | 2.56 | Cc1ccc2c3c(ccc2n1)OC[C@H](CNC[C@@H]1CCc2[nH]c4ccc(F)cc4c2C1)O3 [Example 5, N-{[(3R)-6-fluoro-2,3,4,9-tetrahydro-1H-carbazol-3-yl]methyl}-N-{[(2S)-8-methyl-2,3-dihydro[1,4]dioxino[2,3-f]quinolin-2-yl]methyl}amine] | –
15 | 2.5 | 39.4 | 3.1 | Cc1ccc2c3c(ccc2n1)OC[C@H](CNC[C@@H]1CCc2c(c4cc(F)ccc4n2C)C1)O3 [Example 8, N-{[(3R)-6-fluoro-9-methyl-2,3,4,9-tetrahydro-1H-carbazol-3-yl]methyl}-N-{[(2S)-8-methyl-2,3-dihydro[1,4]dioxino[2,3-f]quinolin-2-yl]methyl}amine] | –
16 | 1.26 | 79 | 6.61 | Cc1ccc2c3c(ccc2n1)OC[C@H](CNC[C@H]1CCc2[nH]c4ccc(F)cc4c2C1)O3 [Example 3, S,S-(6-Fluoro-2,3,4,9-tetrahydro-1H-carbazol-3-ylmethyl)-(8-methyl-2,3-dihydro-[1,4]dioxino[2,3-f]quinolin-2-ylmethyl)-amine] | –
